Test results taken from patent publication US9284283B2, “Macrocyclic compounds for modulating IL-17” (ENSEMBLE THERAPEUTICS CORPORATION, priority 2012, dated 2016).
pIC50, pKd: −log10 of the molar value.

Columns and labels:
[1] = target: T1, recombinant human IL17a (binding to its receptor IL17R) (Homo sapiens, UniProt Q16552); experiment: IL-17 competition ELISA I (IL17a coated, IL17R/Fc binding)
T1 construct: purchased R&D Systems 317-ILB (IL17a); 177-IR (IL17R/Fc)
T1 sequence (Q16552 20-155 limits assumed): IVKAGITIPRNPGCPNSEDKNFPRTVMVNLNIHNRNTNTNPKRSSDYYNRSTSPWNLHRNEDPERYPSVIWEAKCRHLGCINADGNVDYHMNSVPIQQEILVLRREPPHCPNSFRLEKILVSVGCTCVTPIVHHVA
Summary of the method: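 Plates coated with 20 nM recombinant human IL17a received compound dilutions and 12 nM IL17R/Fc (final) for 30 min at room temperature. Bound receptor was detected with HRP anti-human Fc and TMB, read at 450 nm. IC50 came from a 4-parameter logistic fit between no-competitor and blank controls.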

IL17A = target: T2, IL17A (Homo sapiens, UniProt Q16552); experiment: Surface Plasmon Resonance (SPR) analysis of compound interactions with IL17A; details: SPR binding to IL17A
T2 sequence (Q16552 24-155): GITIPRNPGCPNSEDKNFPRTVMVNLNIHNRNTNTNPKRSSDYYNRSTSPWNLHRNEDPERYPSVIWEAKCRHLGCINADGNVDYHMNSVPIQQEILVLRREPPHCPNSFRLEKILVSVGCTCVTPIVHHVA
Method: SPR analysis was carried out with a GE Healthcare (Piscataway, N.J.) Biacore X100 system. Typically, the chip (NTA Biacore Biosensor chip; GE Healthcare BR-1000-34) was first conditioned by injection of 0.35 M EDTA, which also served to remove any immobilized proteins from previous runs. Before immobilization of the recombinant 6-His-tagged IL17, the chip was washed with 0.5 mM nickel chloride in NTA buffer (10 mM HEPES buffer, 0.15 M sodium chloride, 10 μM ethylene diamine tetraacetic acid, 0.005% v/v surfactant P20 (GE Healthcare BR-1000-54)) to form a nickel chelate on the chip. IL17 protein was immobilized onto a NTA chip through its 6-His tag. IL17A was typically injected at 0.25 μM for 60-120 seconds, followed by a stabilization step washing with NTA+0.5% DMSO for 120 seconds or longer.
Five 2-fold or 3-fold serial dilutions of test compound were injected serially onto the chip. All steps were conducted using NTA buffer containing 0.5% v/v dimethylsulfoxide (DMSO). Compounds were diluted from stock solutions of 10 mM concentration in 100% DMSO with NTA buffer to obtain 50 μM solutions in NTA+0.5% DMSO. Subsequent 2× or 3× dilutions were made in NTA+0.5% DMSO. Compound was generally injected for 180 seconds followed by washing the chip in buffer alone for 120 seconds. The rate of refractive index change (RU units/time) and the maximum extend of RU change was measured during the “on” phase of analyte injection, followed by measuring the rate during the “off” phase.
Kinetic parameter fits were conducted using the Biacore SPR Evaluation Program (GE Healthcare) for 1:1 molecular binding fits, after subtracting the baseline average of 2 or more runs in which no analyte was injected. This program then reports the best fit average for the “on” rate (Ka), the “off” rate (Kd) and the dissociation constant (KD) (Chaiken, I et al., Anal Biochem 201, 197-210 (1992)). A separate program in the Biacore SPR Evaluation Program then calculates the best fit for Kd based upon the extent of binding alone (RU units bound) at each concentration of analyte and reports the best fit Kd by best fit to a Lineweaver-Burke plot. Typically, the Kd value calculated through both means agreed within a factor of three.
The presence and activity of IL17 on the NTA chip was routinely confirmed three ways: • 1) An increase in response units (RU) upon immobilization confirms that the IL17 was immobilized on the chip; • 2) Anti-IL17 was also injected on the chip to confirm the presence of IL17; and • 3) IL17R was injected onto the chip to confirm that the immobilized IL17 retained its binding activity for its receptor. Negative controls to access specificity for compound binding were conducted by immobilizing unrelated, but his-tagged, proteins (such as cyclophilin D) and conducting the same analysis as done with IL17A.

[2] = target: T3, biotinylated human IL-17 (binding to IL17R/Fc) (Homo sapiens, UniProt Q16552); experiment: IL-17 competition ELISA II (captured IL17R/Fc, biotinylated IL-17)
T3 construct: purchased R&D Systems 317-ILB (IL-17, biotinylated); 177-IR (IL17R/Fc)
T3 sequence (Q16552 20-155 limits assumed): T1 sequence (Q16552 20-155 limits assumed)
Summary of the method: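 Anti-human IgG-coated plates captured IL17R/Fc (10 nM), then compound (5-fold dilutions from 1 μM) and biotinylated human IL-17 (20 nM stock) were added for 30 min at room temperature in PBST. Bound IL-17 detected by streptavidin-HRP/TMB at 450 nm. IC50 from 4-parameter logistic fit between no-competitor and blank controls.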

| SMILES | pIC50 [1] | pKd (IL17A) | pIC50 [2] |
| --- | --- | --- | --- |
| O=C1CNC(=O)[C@@H](Cc2ccc(NC(=O)[C@H](Cc3ccccc3Cl)NC(=O)C3CCCCC3)cc2)NC(=O)CC2(CCCC2)CC(=O)NCCCCCN1 [Compound 207] | 6.00 to 7.00 | > 7.00 | – |
| O=C1CNC(=O)[C@@H](Cc2ccc(NC(=O)[C@H](Cc3cscn3)NC(=O)Cc3ccccc3)cc2)NC(=O)CC2(CCCC2)CC(=O)NCCCCCN1 [Compound 232] | 5.00 to 6.00 | 6.00 to 7.00 | – |
| CC1(C)CC(=O)NCCCCCNC(=O)CNC(=O)[C@@H](Cc2ccc(NC(=O)[C@H](Cc3ccccc3Cl)NC(=O)Cc3ccccc3)cc2)NC(=O)C1 [Compound 222] | > 7.00 | > 7.00 | – |
| CN1CC(=O)NCCCCCNC(=O)CC2(CCCC2)CC(=O)N[C@H](Cc2ccc(NC(=O)[C@H](Cc3ccccc3Cl)NC(=O)Cc3ccccc3)cc2)C1=O [Compound 188] | 5.00 to 6.00 | 6.00 to 7.00 | – |
| O=C1CNC(=O)[C@@H](Cc2ccc(NC(=O)[C@H](Cc3ccccc3Cl)NC(=O)c3cccc(O)c3)cc2)NC(=O)CC2(CCCC2)CC(=O)NCCCCCN1 [Compound 214] | > 7.00 | > 7.00 | – |
| O=C1CCCNC(=O)[C@@H](Cc2ccc(NC(=O)[C@H](Cc3ccccc3Cl)NC(=O)Cc3ccccc3)cc2)NC(=O)CC2(CCCC2)CC(=O)NCCCN1 [Compound 158] | > 7.00 | > 7.00 | – |
| O=C1CNC(=O)[C@@H](Cc2ccc(NC(=O)[C@H](Cc3ccc(O)cc3)NC(=O)Cc3ccccc3)cc2)NC(=O)CC2(CCCC2)CC(=O)NCCCCCN1 [Compound 183] | 5.00 to 6.00 | 6.00 to 7.00 | – |
| O=C1CNC(=O)[C@@H](Cc2ccc(NC(=O)[C@H](Cc3cccc(Cl)c3)NC(=O)Cc3ccccc3)cc2)NC(=O)CC2(CCCC2)CC(=O)OCCCCCN1 [Compound 212] | 6.00 to 7.00 | 6.00 to 7.00 | – |
| O=C1CNC(=O)[C@@H](Cc2ccc(NC(=O)[C@H](Cc3ccccc3Cl)NC(=O)c3cnccn3)cc2)NC(=O)CC2(CCCC2)CC(=O)NCCCCCN1 [Compound 200] | 6.00 to 7.00 | 6.00 to 7.00 | – |
| CC(C)(C)[C@H](NC(=O)Cc1ccccc1)C(=O)Nc1ccc(C[C@H]2NC(=O)CC3(CCCC3)CC(=O)NCCCCCNC(=O)CNC2=O)cc1 [Compound 231] | – | 6.00 to 7.00 | 6.00 to 7.00 |
| O=C1CC2(CCCC2)CC(=O)N[C@H](Cc2ccc(NC(=O)[C@H](Cc3ccccc3F)NC(=O)Cc3ccccc3)cc2)C(=O)NCCCC[C@@H](C(=O)O)N1 [Compound 179] | – | 6.00 to 7.00 | > 7.00 |
| O=C1CCCNC(=O)[C@@H](Cc2ccc(NC(=O)[C@H](Cc3ccccc3Cl)NC(=O)Cc3ccccc3)cc2)NC(=O)CC2(CCCC2)CC(=O)N(CCO)CCCCCN1 [Compound 172] | – | > 7.00 | – |
| CC(=O)N[C@@H](Cc1ccccc1Cl)C(=O)Nc1ccc(C[C@H]2NC(=O)CC3(CCCC3)CC(=O)NCCCCCNC(=O)CCCNC2=O)cc1 [Compound 155] | – | > 7.00 | – |
| CC(=O)N[C@@H](Cc1ccccc1Cl)C(=O)Nc1ccc(C[C@H]2NC(=O)CC3(CCCC3)CC(=O)NCCCCNC(=O)CCCNC2=O)cc1 [Compound 167] | – | > 7.00 | – |
| CC1(C)NC(=O)[C@@H](Cc2ccc(NC(=O)[C@H](Cc3ccccc3Cl)NC(=O)Cc3ccccc3)cc2)NC(=O)CC2(CCCC2)CC(=O)N[C@@H](C(=O)O)CCCCNC1=O [Compound 182] | – | 6.00 to 7.00 | – |
| O=C1CCNC(=O)[C@@H](Cc2ccc(NC(=O)[C@H](Cc3ccccc3Cl)NC(=O)Cc3ccccc3)cc2)NC(=O)CC2(CCCC2)CC(=O)N(CCO)CCCCCN1 [Compound 170] | – | > 7.00 | – |
| CC(=O)N[C@@H](Cc1ccccc1Cl)C(=O)Nc1ccc(C[C@H]2NC(=O)CC3(CCCC3)CC(=O)NCCCCNC(=O)CCNC2=O)cc1 [Compound 165] | – | > 7.00 | – |
| CC(=O)N[C@@H](Cc1ccccc1Cl)C(=O)Nc1ccc(C[C@H]2NC(=O)CC3(CCCC3)CC(=O)N(CCO)CCCCCNC(=O)CCCNC2=O)cc1 [Compound 173] | – | > 7.00 | – |
| O=C1CCNC(=O)[C@@H](Cc2ccc(NC(=O)[C@H](Cc3ccccc3Cl)NC(=O)Cc3ccccc3)cc2)NC(=O)CC2(CCCC2)CC(=O)NCCCCCN1 [Compound 160] | – | > 7.00 | – |
| COC(=O)[C@H]1CCCCNC(=O)[C@H](CO)NC(=O)[C@@H](Cc2ccc(NC(=O)[C@H](Cc3ccccc3Cl)NC(=O)Cc3ccccc3)cc2)NC(=O)CC2(CCCC2)CC(=O)N1 [Compound 147] | – | 6.00 to 7.00 | – |
| O=C1CC2(CCCC2)CC(=O)N[C@@H](C(=O)O)CCCCNC(=O)[C@H](Cc2ccc(NC(=O)[C@H](Cc3ccccc3F)NC(=O)Cc3ccccc3)cc2)N1 [Compound 102] | – | < 5.00 | – |
| CC(=O)N[C@@H](Cc1ccccc1Cl)C(=O)Nc1ccc(C[C@H]2NC(=O)CC3(CCCC3)CC(=O)NCCCCCNC(=O)CCNC2=O)cc1 [Compound 154] | – | > 7.00 | – |

More lines, now with the values ahead:

| pIC50 [1] | pKd (IL17A) | pIC50 [2] | SMILES |
| --- | --- | --- | --- |
| – | 6.00 to 7.00 | – | COC(=O)[C@@H]1CCCCNC(=O)CCCNC(=O)[C@@H](Cc2ccc(NC(=O)[C@H](Cc3ccc(F)cc3)NC(=O)c3ccccc3)cc2)NC(=O)CC2(CCCC2)CC(=O)N1 [Compound 119] |
| – | 6.00 to 7.00 | – | COC(=O)[C@H]1CCCCNC(=O)CCCNC(=O)[C@@H](Cc2ccc(NC(=O)[C@H](Cc3ccccc3)NC(=O)Cc3ccccc3)cc2)NC(=O)CC2(CCCC2)CC(=O)N1 [Compound 138] |
| – | > 7.00 | – | COC(=O)[C@H]1CCCCNC(=O)CNC(=O)[C@@H](Cc2ccc(NC(=O)[C@H](Cc3ccccc3F)NC(=O)Cc3ccccc3)cc2)NC(=O)CC2(CCCC2)CC(=O)N1 [Compound 149] |
| – | 5.00 to 6.00 | – | COC(=O)[C@H]1CCCCNC(=O)CCCNC(=O)[C@H](Cc2ccc(NC(=O)[C@H](Cc3ccccc3)NC(=O)Cc3ccccc3)cc2)NC(=O)CC2(CCCC2)CC(=O)N1 [Compound 104] |
| – | 6.00 to 7.00 | – | COC(=O)[C@@H]1CCCCNC(=O)CCCNC(=O)[C@@H](Cc2ccc(NC(=O)[C@H](Cc3ccccc3)NC(=O)c3ccccc3)cc2)NC(=O)CC2(CCCC2)CC(=O)N1 [Compound 115] |
| – | > 7.00 | – | COC(=O)[C@H]1CCCCNC(=O)C(C)(C)NC(=O)[C@@H](Cc2ccc(NC(=O)[C@H](Cc3ccccc3Cl)NC(=O)c3ccccc3)cc2)NC(=O)CC2(CCCC2)CC(=O)N1 [Compound 146] |
| – | 6.00 to 7.00 | – | COC(=O)[C@@H]1CCCCNC(=O)CCCNC(=O)[C@@H](Cc2ccc(NC(=O)[C@H](Cc3ccccc3C)NC(=O)c3ccccc3)cc2)NC(=O)CC2(CCCC2)CC(=O)N1 [Compound 127] |
| – | 6.00 to 7.00 | – | COC(=O)[C@@H]1Cc2ccc(cc2)NC(=O)CCCNC(=O)[C@@H](Cc2ccc(NC(=O)[C@H](Cc3ccccc3F)NC(=O)c3ccccc3)cc2)NC(=O)CC2(CCCC2)CC(=O)N1 [Compound 134] |
| – | > 7.00 | – | COC(=O)[C@@H]1CCCCNC(=O)CNC(=O)[C@@H](Cc2ccc(NC(=O)[C@H](Cc3ccccc3F)NC(=O)c3ccccc3)cc2)NC(=O)CC2(CCCC2)CC(=O)N1 [Compound 151] |
| – | 6.00 to 7.00 | – | COC(=O)[C@@H]1CCCCNC(=O)CCCNC(=O)[C@@H](Cc2ccc(NC(=O)[C@H](Cc3ccccc3Br)NC(=O)c3ccccc3)cc2)NC(=O)CC2(CCCC2)CC(=O)N1 [Compound 121] |
| – | 6.00 to 7.00 | – | COC(=O)[C@@H]1CCCCNC(=O)CCCNC(=O)[C@@H](Cc2ccc(NC(=O)[C@H](Cc3ccc(-c4ccccc4)cc3)NC(=O)Cc3ccccc3)cc2)NC(=O)CC2(CCCC2)CC(=O)N1 [Compound 124] |
| – | 5.00 to 6.00 | – | CC[C@H](C)[C@H](NC(=O)c1ccccc1)C(=O)Nc1ccc(C[C@H]2NC(=O)CC3(CCCC3)CC(=O)N[C@H](C(=O)OC)CCCCNC(=O)CCCNC2=O)cc1 [Compound 123] |
